Test results taken from patent US11161855B2, “Tricyclic fused thiophene derivatives as JAK inhibitors” (Incyte Corporation, priority 2012, dated 2021).

What follows are compounds tested on human JAK1 (a.a. 837-1142) (assay: In vitro JAK kinase assay (HTRF), JAK1). Settings: ratio of IC50s, 1 mM ATP.
Type: biochemical
Outline: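 Baculovirus-expressed catalytic domains (JAK1 a.a. 837-1142, JAK2 a.a. 828-1132) phosphorylate 500 nM biotinylated peptide at 1 mM ATP, Tris pH 7.8, 1 h at room temperature. EDTA stop and HTRF detection with Eu-Py20/SA-APC; IC50 values derived.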

JAK2/JAK1, >10:
C[C@@H](O)c1nc2cnc3ccsc3c2n1[C@H]1CC[C@H](CNS(C)(=O)=O)CC1 [Example 80, N-[(trans-4-{2-[(1R)-1-Hydroxyethyl]-1H-imidazo[4,5-d]thieno[3,2-b]pyridin-1-yl}cyclohexyl)methyl]methanesulfonamide]
C[C@@H](O)c1nc2cnc3ccsc3c2n1[C@H]1CC[C@H](CNC(=O)N(C)C)CC1 [Example 81, N′-[(trans-4-{2-[(1R)-1-Hydroxyethyl]-1H-imidazo[4,5-d]thieno[3,2-b]pyridin-1-yl}cyclohexyl)methyl]-N,N-dimethylurea]
CCOC(=O)NC[C@H]1CC[C@H](n2c([C@@H](C)O)nc3cnc4ccsc4c32)CC1 [Example 82, Ethyl [(trans-4-{2-[(1R)-1-hydroxyethyl]-1H-imidazo[4,5-d]thieno[3,2-b]pyridin-1-yl}cyclohexyl)methyl]carbamate]
CCCOC(=O)NC[C@H]1CC[C@H](n2c([C@@H](C)O)nc3cnc4ccsc4c32)CC1 [Example 83, Propyl [(trans-4-{2-[(1R)-1-hydroxyethyl]-1H-imidazo[4,5-d]thieno[3,2-b]pyridin-1-yl}cyclohexyl)methyl]carbamate]
CC(C)OC(=O)NC[C@H]1CC[C@H](n2c([C@@H](C)O)nc3cnc4ccsc4c32)CC1 [Example 84, Isopropyl [(trans-4-{2-[(1R)-1-hydroxyethyl]-1H-imidazo[4,5-d]thieno[3,2-b]pyridin-1-yl}cyclohexyl)methyl]carbamate]
C[C@@H](O)c1nc2cnc3ccsc3c2n1[C@H]1CC[C@H](CNC(=O)OC2CCOC2)CC1 (stereo partly drawn) [Example 85, Tetrahydrofuran-3-yl [(trans-4-{2-[(1R)-1-hydroxyethyl]-1H-imidazo[4,5-d]thieno[3,2-b]pyridin-1-yl}cyclohexyl)methyl]carbamate]
COC(=O)NC[C@H]1CC[C@H](n2c(CC#N)nc3cnc4ccsc4c32)CC1 [Example 86, Methyl ({trans-4-[2-(cyanomethyl)-1H-imidazo[4,5-d]thieno[3,2-b]pyridin-1-yl]cyclohexyl}methyl)carbamate]
CCOC(=O)NC[C@H]1CC[C@H](n2c(CC#N)nc3cnc4ccsc4c32)CC1 [Example 87, Ethyl ({trans-4-[2-(cyanomethyl)-1H-imidazo[4,5-d]thieno[3,2-b]pyridin-1-yl]cyclohexyl}methyl)carbamate]
CC(C)OC(=O)NC[C@H]1CC[C@H](n2c(CC#N)nc3cnc4ccsc4c32)CC1 [Example 88, Isopropyl ({trans-4-[2-(cyanomethyl)-1H-imidazo[4,5-d]thieno[3,2-b]pyridin-1-yl]cyclohexyl}methyl)carbamate]
CCC(=O)NC[C@H]1CC[C@H](n2c(CC#N)nc3cnc4ccsc4c32)CC1 [Example 89, N-({trans-4-[2-(Cyanomethyl)-1H-imidazo[4,5-d]thieno[3,2-b]pyridin-1-yl]cyclohexyl}methyl)propanamide]
N#CCc1nc2cnc3ccsc3c2n1[C@H]1CC[C@H](CC#N)CC1 [Example 90, {1-[trans-4-(Cyanomethyl)cyclohexyl]-1H-imidazo[4,5-d]thieno[3,2-b]pyridin-2-yl}acetonitrile]
N#CC[C@H]1CC[C@H](n2c(CO)nc3cnc4ccsc4c32)CO1 [Example 91, {(2R,5S)-5-[2-(Hydroxymethyl)-1H-imidazo[4,5-d]thieno[3,2-b]pyridin-1-yl]tetrahydro-2H-pyran-2-yl}acetonitrile]
